# According to patent publication EP1043979B1, “COMPOSITIONS FOR THE TRANSDERMAL AND DERMAL ADMINISTRATION OF BIOLOGICALLY ACTIVE AGENTS” (PULITZER ITALIANA S.r.l., priority 1997, dated 1999):
# Experiment: In vitro transdermal flux of nitroglycerin from TTS patches, Franz diffusion cells, HPLC of receiving medium
# Assay type: in vitro ADME, human
# Text: The transdermal delivery devices employed in this example and in the following ones were produced according to the following procedure. A matrix layer containing the active substance, the adhesive and, when present, the permeation enhancer and the absorption assistant was obtained by uniformly spreading a solution of the components, with the proper concentration, viscosity and quantitative composition, on the silanised or fluorinated surface of a polyester protective layer. After evaporating the solvent at 70-80°C for 15-20 min. a final layer of a homogeneous thickness was obtained. weighing about 10 mg/cm^2 and having the desired composition. The composition had been preliminarily fixed taking into account the amount of solvent to be removed. During the above operation the adhesive employed underwent the required cross-linking reaction. […]
# On the transdermal devices thus produced in vitro release tests were carried out, employing methods well known to this aim (Merrit e. Cooper, J. Controlled Release, 1984, 1, 161), that have been further developed more recently (Reifenrath et al., J. Pharm. Sci., 80, 1991, 526). […] The tested patches were applied to the exposed side of the skin, and the transdermal flux was measured by analysing (by HPLC) the receiving medium. […]
Compound,"activity as enhancer (N-(2-hydroxyethyl)acetamide alone, 3-7% in nitroglycerin TTS (Table 2))",transdermal permeation
CC(=O)NCCO [N-(2-hydroxyethyl)acetamide],does not possess any significant activity as enhancer,–
sorbitan monooleate,–,relative reduction of the transdermal permeation
